Test results published in US20210363124A1, “HETEROCYCLYL POLYMETHINE IR CHROMOPHORES” (The Regents of the University of California, priority 2018, published 2021).
Entries after “also recorded” stand apart in the source; their conditions may differ.

Legend:
Assay type in all cases: physicochemical
[1] = Emission spectra and absolute fluorescence quantum yield in dichloromethane (integrating sphere)
Protocol: (§1) The absorption, emission, and photostability properties of flavylium dyes 3-6 were measured.
Finally, the photoluminescence of Flav7 was compared to the prominent SWIR polymethine dyes, IR-26 and IR-1061. IR-26 has been widely-employed as a standard for this region, while IR-1061 has recently been the active component of nanomaterials for NIR-II in vivo imaging. Despite numerous studies which rely on these dyes, the reported ΦF for IR-26 have been inconsistent, and the ΦF of IR-1061 has yet to be thoroughly characterized. Consequently, to establish that Flav7 is more emissive than existing SWIR polymethine dyes, each dye's emission was directly compared using a SWIR camera. We prepared solutions of 3, IR-26, and IR-1061 in dichloromethane with identical absorbance at 808 nm, excited with a diffuse 808 nm laser, and imaged their emission over 1000-1500 nm.
(§2) The absorbance spectra in FIG. 2 and FIGS. 4A-4G were obtained in DCM on a JASCO V-770 UV-Visible/NIR spectrophotometer with a 2000 nm/min or 4000 nm/min scan rate. Plotted are the baseline corrected and normalized data. The emission spectra in FIG. 2 were taken in DCM on either a Horiba Instruments PTI QuantaMaster Series fluorometer (6), a Fluoromax-3 spectrofluorometer (1, 3-5), or home-built InGaAs array detector (Princeton Instruments). For 6 the following parameters were used: ex. 610 nm, emission collected from 620-900 nm, slits 5 nm, step size 1 nm, integration time 1 s. Plotted is the DCM corrected, baseline corrected, normalized data. For 1, and 3-5, the following parameters were used: slits 5 nm, step size 1 nm, integration time, 0.25 s. […]
(§3) Polymethine dyes disclosed herein are characterized with respect to their photophysics including absorption, emission, extinction coefficient, quantum yields, and fluorescence lifetime. All quantum yields values obtained are absolute quantum yields values measured using an integrating sphere. Photostabilities are evaluated by sample irradiation with high powered LEDs. Additionally, solvatochromism, solvent compatibility, and stability are assessed.

[2] = Photobleaching under continuous-wave irradiation (532 nm, 0.53 fluence); conditions: for photostability (in words): dichloromethane, 532 nm irradiation
Protocol: Photostabilities of the Flav series were measured under continuous-wave irradiation (532 nm, 0.53 fluence).
as §3

[3] = Absorption spectra of flavylium dyes in dichloromethane (UV-Visible/NIR spectrophotometer)
Protocol: as §1, §2, §3

ClC1=C(/C=C/c2cc(-c3ccccc3)[s+]c(-c3ccccc3)c2)CCC/C1=C/C=C1C=C(c2ccccc2)SC(c2ccccc2)=C1.F[B-](F)(F)F [IR-1061]
emission (DCM) λmax ([1]; dichloromethane): 1081 nm | ΦF ([1]; dichloromethane, absolute quantum yield): 0.32±0.04%

CN(C)c1ccc2c(c1)OC(c1ccccc1)=C\C2=C/C=C/C=C/c1cc(-c2ccccc2)[o+]c2cc(N(C)C)ccc12.[O-][Cl+3]([O-])([O-])[O-] [Dye 4, 7-(dimethylamino)-4-((1E,3E)-5-((E)-7-(dimethylamino)-2-phenyl-4H-chromen-4-ylidene)penta-1,3-dien-1-yl)-2-phenylchromenylium perchlorate]
photostability (in words) ([2]; listed as Flav5): excellent photostabilities; also recorded: desirable photostability

CN(C)c1ccc2c(c1)OC(c1ccccc1)=C/C2=C\C=C\c1cc(-c2ccccc2)[o+]c2cc(N(C)C)ccc12.[O-][Cl+3]([O-])([O-])[O-] [Dye 5, 7-(Dimethylamino)-4-((E)-3-((E)-7-(dimethylamino)-2-phenyl-4H-chromen-4-ylidene)prop-1-en-1-yl)-2-phenylchromenylium perchlorate]
photostability (in words) [2]: excellent photostabilities | photostability relative to HITCI ([2]; more photostable than HITCI): 4 fold

CN(C)c1ccc2c(c1)OC(c1ccccc1)=C/C2=C\c1cc(-c2ccccc2)[o+]c2cc(N(C)C)ccc12.O=C([O-])C(F)(F)F [Dye 6, (E)-7-(Dimethylamino)-4-((7-(dimethylamino)-2-phenyl-4H-chromen-4-ylidene)methyl)-2-phenylchromenylium 2,2,2-trifluoroacetate]
photostability (in words) [2]: excellent photostabilities

CN1C(=CC=CC=CC=CC2=[N+](C)c3ccccc3C2(C)C)C(C)(C)c2ccccc21.[I-] [HITCI, 1,1′,3,3,3′,3′-hexamethylindotricarbocyanine iodide]
ΦF relative to Flav3 ([1]; higher ΦF than Flav3): ~10 fold | absorption (DCM) λmax [3]: ~745 nm | absorption (DCM) ε ([3]; at λmax): ~220,000 M^−1cm^−1
